# Source: patent publication US10322123B2, “Compound for anti-cancer therapy that acts by targeting GOF mutant P53 and stimulates P73 to restore the P53 pathway signaling” (The Penn State Research Foundation, priority 2014, dated 2019)
# What was measured:
# cancer cells [1] = assay: Colony formation assay; assay type: cell-based, human; conditions: treated 3 days, then drug-free medium two weeks
# Experimental: Franken N A, et al., Nat Protoc 2006; 1: 2315-9). Cancer cells were plated at 500 cells/well on 6-well plate, and then treated with NSC59984 next day. At 3 days after NSC59984 treatment, cancer cells were cultured with drug-free complete medium for two weeks with fresh medium changed every 3 days. Cells were fixed with 10% formalin and stained with 0.05% crystal violet at the end of two weeks period of cell culture.
# normal cells = assay: Flow cytometry sub-G1 DNA content; assay type: cell-based, human; conditions: 25 μM, 72 hr
# Experimental: (§1) Cells were treated with NSC59984 or other drugs. Seventy-two hours after treatment, the cells were fixed with ethanol and stained with Propidium Iodide (PI). The samples were then subjected to analysis by an Epics Elite flow cytometer to measure the DNA content of the stained cells.
# cancer cells [2] = assay: Flow cytometry sub-G1 DNA content; assay type: cell-based, human; conditions: 72 hr
# Experimental: as §1
# RXF393 cells = assay: Flow cytometry sub-G1 DNA content; assay type: cell-based, human; conditions: 50 μM, 8 hours
# Experimental: as §1
# DLD-1 cells = assay: Flow cytometry sub-G1 DNA content; assay type: cell-based, human
# Experimental: as §1
# Cells were infected with retrovirus containing the pSIREN-REtrpcQ retroviral vector recombinant with TAp73 RNAi. Cells were cultured with blasticidin for several weeks, and blasticidin-resistant clones were selected. Knock-down of p73 was detected by measuring p73 protein levels by Western blot with anti-p73 antibody (Bethyl laboratories Inc. USA).
# p21, Puma, DR5 and Noxa = assay: Western blot of p53 target gene proteins; assay type: cell-based, human
# Experimental: (§2) Proteins were extracted from cells and electrophoresed through 4-12% SDS-PAGE then transferred to PVDF membranes. The primary antibodies indicated in the figures were incubated with the transferred PVDF in blocking buffer at 4° C. overnight. Antibody binding was detected on PVDF with appropriate IRDye-secondary antibodies (LI-COR Biosciences, USA) by the ODYSSEY infrared imaging system.
# [3] = tested on: MRC-5 normal fibroblast cells; assay: CellTiter-Glo cell viability, combination with CPT-11; assay type: cell-based, human; conditions: for Combination index (CI): MRC, 72 hr
# Experimental: (§3) Cells at a concentration of 5000 cells/well in 96-well plates were treated with NSC59984 or other drugs. At seventy-two hours after treatment, cells were mixed with an equal volume of CellTiter-Glo reagents (Promega, Madison, Wis.), following the manufacturer's protocol, and bioluminescence imaging was measured using the IVIS imager.
# (§4) All results were obtained from triplicate experiments, unless other indicated. Statistical analyses were performed using PRISM4 Software (GraphPad Software, Inc., San Diego, Calif., USA), ANOVA and Student's t-test. Statistical significances were determined by p<0.05. Combination indices were calculated using the Chou-Talalay method with CalcuSyn software (biosoft).
# SW480 cancer cells = assay: as above; assay type: cell-based, human; conditions: for Combination index (CI): SW480, 72 hr
# Experimental: as §3, §4
# mutant p53 = mutant p53 (Homo sapiens, UniProt P04637, P309S/R273H); assay: Phosphorylation Western blot; assay type: cell-based; parameters: Phosphorylation of mutant p53 at Thr 55 and phosphorylation of MDM2 at Ser166 were found in SW480 cancer cells; endogenous in cells; host or cells: SW480; conditions: SW480 cells
# Experimental: as §2
# [4] = target: T1, wild-type p53 protein epitope (Homo sapiens, UniProt P04637, R175H); assay: Wild-type p53 conformation with Pab1620 antibody; assay type: cell-based; conditions: RXF393 cells, 24 hr
# T1 construct: endogenous in cells; host or cells: RXF393
# Experimental: Five hundred micrograms of cell lysate were incubated with 2 μg of antibody overnight at 4° C. Then, 25 μl of protein A-Sepharose beads were added to the lysates. The immunoprecipitated proteins were eluted from protein A-Sepharose beads by boiling with 2× sample buffer and subjected to SDS-PAGE.
# [5] = HCT116 and p53-null HCT116 cells
# [6] = CPT-11 15 mg/ml, NSC59984 12 mM
# [7] = CPT-11 15 mg/ml, NSC59984 25 mM
# [8] = CPT-11 30 mg/ml, NSC59984 12 mM
# [9] = CPT-11 30 mg/ml, NSC59984 25 mM
# [10] = CPT-11 60 mg/ml, NSC59984 12 mM
# [11] = CPT-11 60 mg/ml, NSC59984 25 mM
# [12] = CPT-11 120 mg/ml, NSC59984 6 mM
# [13] = CPT-11 120 mg/ml, NSC59984 12 mM
# [14] = CPT-11 120 mg/ml, NSC59984 25 mM
smiles,measurement,setting,value
"CN1CCN(C(=O)/C=C/c2ccc([N+](=O)[O-])o2)CC1 [NSC59984, (E)-1-(4-methylpiperazin-1-yl)-3-(5-nitrofuran-2-yl)prop-2-en-1-one]",colony numbers,cancer cells [1],significantly reduced
same,sub-G1 DNA content increase,normal cells,not in normal cells
same,sub-G1 DNA content,cancer cells [2]; 25 μM,26-56%
same,cells with sub-G1 content,cancer cells [2]; 50 μM,55-93%
same,Sub-G1 DNA content,RXF393 cells,8.7%
same,Sub-G1 DNA content,"DLD-1 cells; 50 μM, 8 hours, DLD-1",8.2%
same,percentage of cells with sub-G1 content,"DLD-1 cells; DLD-1 cells, 72 hr",increased
same,effect on percentage of cells with sub-G1 content,"DLD-1 cells; p73 knock-down DLD-1 cells, 72 hr",significantly reduced
same,p21 protein,"p21, Puma, DR5 and Noxa; [5]",up-regulated
same,"protein levels of Puma, DR5 and Noxa","p21, Puma, DR5 and Noxa; [5]",not up-regulated
same,"protein levels of p21, Puma, Noxa and DR5","p21, Puma, DR5 and Noxa; SW480 and DLD-1 cells, increasing doses, 8 hr",significantly up-regulated
same,"up-regulation of endogenous p21, Puma, DR5 and Noxa proteins","p21, Puma, DR5 and Noxa; p73 knock-down DLD-1 cells, 8 hr",reduced by p73 knock-down
same,Combination index (CI),"[3]; CPT-11 15 mg/ml, NSC59984 50 μM",0.00 ± 0.00
same,Combination index (CI),"[3]; CPT-11 15 mg/ml, NSC59984 6 mM",1.06 ± 0.43
same,Combination index (CI),[3]; [6],0.91 ± 0.21
same,Combination index (CI),[3]; [7],0.54 ± 0.03
same,Combination index (CI),"[3]; CPT-11 30 mg/ml, NSC59984 50 μM",0.00 ± 0.00
same,Combination index (CI),"[3]; CPT-11 30 mg/ml, NSC59984 6 mM",0.75 ± 0.09
same,Combination index (CI),[3]; [8],0.40 ± 0.07
same,Combination index (CI),[3]; [9],0.12 ± 0.07
same,Combination index (CI),"[3]; CPT-11 60 mg/ml, NSC59984 50 μM",0.00 ± 0.00
same,Combination index (CI),"[3]; CPT-11 60 mg/ml, NSC59984 6 mM",0.49 ± 0.09
same,Combination index (CI),[3]; [10],0.08 ± 0.04
same,Combination index (CI),[3]; [11],0.00 ± 0.00
same,Combination index (CI),"[3]; CPT-11 120 mg/ml, NSC59984 50 μM",0.02 ± 0.00
same,Combination index (CI),[3]; [12],0.06 ± 0.02
same,Combination index (CI),[3]; [13],0.00 ± 0.00
same,Combination index (CI),[3]; [14],0.00 ± 0.00
same,combinational treatment with CPT11,[3]; normal fibroblast MRC5 cells,synergic activity
same,Combination index (CI),"SW480 cancer cells; CPT-11 15 mg/ml, NSC59984 6 mM",3.01 ± 0.20
same,Combination index (CI),SW480 cancer cells; [6],2.02 ± 0.27
same,Combination index (CI),SW480 cancer cells; [7],0.66 ± 0.04
same,Combination index (CI),"SW480 cancer cells; CPT-11 15 mg/ml, NSC59984 50 mM",1.00 ± 0.02
same,Combination index (CI),"SW480 cancer cells; CPT-11 30 mg/ml, NSC59984 6 mM",1.80 ± 0.15
same,Combination index (CI),SW480 cancer cells; [8],0.38 ± 0.04
same,Combination index (CI),SW480 cancer cells; [9],0.65 ± 0.02
same,Combination index (CI),"SW480 cancer cells; CPT-11 30 mg/ml, NSC59984 50 mM",0.40 ± 0.04
same,Combination index (CI),"SW480 cancer cells; CPT-11 60 mg/ml, NSC59984 6 mM",0.64 ± 0.17
same,Combination index (CI),SW480 cancer cells; [10],0.22 ± 0.03
same,Combination index (CI),SW480 cancer cells; [11],0.57 ± 0.00
same,Combination index (CI),"SW480 cancer cells; CPT-11 60 mg/ml, NSC59984 50 mM",0.41 ± 0.04
same,Combination index (CI),SW480 cancer cells; [12],0.18 ± 0.01
same,Combination index (CI),SW480 cancer cells; [13],0.36 ± 0.08
same,Combination index (CI),SW480 cancer cells; [14],0.62 ± 0.05
same,Combination index (CI),"SW480 cancer cells; CPT-11 120 mg/ml, NSC59984 50 mM",0.23 ± 0.04
same,"cell viability, combinational treatment with CPT11","SW480 cancer cells; SW480 cancer cells as compared to MRC5 and Wi38 normal cells, 72 hr",significantly reduced
same,combinational treatment with CPT11,SW480 cancer cells; SW480 colon cancer cells,synergic activity
same,phosphorylation of mutant p53,mutant p53,phosphorylated at Thr55
same,immunohistochemistry staining with Pab1620,[4],no staining
same,immunoprecipitation of p53 protein with Pab1620 antibody,[4],no p53 protein bound
